Legend:
Experiment in all cases: relative viability (nuclei count vs DMSO), 5 days (fraction); higher = more cells survive
[1] = test system: NCI-H838
In short: (§1)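 Relative viability is defined as nuclei in treated wells over nuclei in vehicle wells. Duplicate plates were run and medians reported. Lung cancer cell lines in 1536-well plates were dosed by pin tool one day after seeding, with one drug or with a fixed anchor-drug dose plus five library-drug doses (not always all listed) in √10 steps, and nuclei were counted after 5 days.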

[2] = test system: NCI-H2126
In short: as §1

[3] = test system: NCI-H522
In short: as §1

[4] = test system: BEN
In short: as §1

[5] = test system: NCI-H1993
In short: as §1

[6] = test system: NCI-H647
In short: as §1

[7] = test system: NCI-H2347
In short: as §1

[8] = test system: LOU-NH91
In short: as §1

[9] = test system: NCI-H727
In short: as §1

[10] = test system: NCI-H2087
In short: as §1

[11] = test system: LCLC-103H
In short: as §1

[12] = test system: NCI-H650
In short: as §1

[13] = test system: NCI-H441
In short: as §1

[14] = test system: HCC-44
In short: as §1

[15] = test system: NCI-H1395
In short: as §1

[16] = test system: HARA
In short: as §1

[17] = test system: EMC-BAC-2
In short: as §1

[18] = test system: 201T
In short: as §1

[19] = test system: NCI-H23
In short: as §1

[20] = test system: NCI-H3122
In short: as §1

[21] = test system: NCI-H596
In short: as §1

CC(=O)O[C@@]12CO[C@@H]1C[C@H](O)[C@@]1(C)C(=O)[C@H](O)C3=C(C)[C@@H](OC(=O)[C@H](O)[C@@H](NC(=O)OC(C)(C)C)c4ccccc4)C[C@@](O)([C@@H](OC(=O)c4ccccc4)[C@H]21)C3(C)C [Docetaxel] + NC(=O)Nc1cc(-c2cccc(F)c2)sc1C(=O)N[C@H]1CCCNC1 [AZD7762] (partner 0.2 µM)
relative viability ([1]; first compound 0.0002 µM): 0.955
relative viability ([1]; first compound 0.000632 µM): 0.915
relative viability ([1]; first compound 0.002 µM): 0.639
relative viability ([1]; first compound 0.006325 µM): 0.606
relative viability ([1]; first compound 0.02 µM): 0.574
relative viability ([2]; first compound 0.0002 µM): 1.07
relative viability ([2]; first compound 0.000632 µM): 1
relative viability ([2]; first compound 0.002 µM): 0.571
relative viability ([2]; first compound 0.006325 µM): 0.395
relative viability ([3]; first compound 0.0002 µM): 0.927
relative viability ([3]; first compound 0.000632 µM): 1.08
relative viability ([3]; first compound 0.002 µM): 0.622
relative viability ([3]; first compound 0.006325 µM): 0.484
relative viability ([3]; first compound 0.02 µM): 0.373
relative viability ([4]; first compound 0.0002 µM): 0.553
relative viability ([4]; first compound 0.000632 µM): 0.822
relative viability ([4]; first compound 0.002 µM): 0.483
relative viability ([4]; first compound 0.006325 µM): 0.412
relative viability ([4]; first compound 0.02 µM): 0.307
relative viability ([5]; first compound 0.0002 µM): 0.873
relative viability ([5]; first compound 0.000632 µM): 0.739
relative viability ([5]; first compound 0.002 µM): 0.603
relative viability ([5]; first compound 0.006325 µM): 0.477
relative viability ([5]; first compound 0.02 µM): 0.303
relative viability ([6]; first compound 0.0002 µM): 0.297
relative viability ([6]; first compound 0.000632 µM): 0.217
relative viability ([6]; first compound 0.002 µM): 0.0746
relative viability ([6]; first compound 0.006325 µM): 0.0816
relative viability ([6]; first compound 0.02 µM): 0.0266
relative viability ([7]; first compound 0.0002 µM): 0.697
relative viability ([7]; first compound 0.000632 µM): 0.583
relative viability ([7]; first compound 0.002 µM): 0.434
relative viability ([7]; first compound 0.006325 µM): 0.395
relative viability ([7]; first compound 0.02 µM): 0.268
relative viability ([8]; first compound 0.0002 µM): 0.748
relative viability ([8]; first compound 0.000632 µM): 0.662
relative viability ([8]; first compound 0.002 µM): 0.509
relative viability ([8]; first compound 0.006325 µM): 0.385
relative viability ([8]; first compound 0.02 µM): 0.342
relative viability ([9]; first compound 0.0002 µM): 0.482
relative viability ([9]; first compound 0.000632 µM): 0.537
relative viability ([9]; first compound 0.002 µM): 0.503
relative viability ([9]; first compound 0.006325 µM): 0.452
relative viability ([9]; first compound 0.02 µM): 0.381
relative viability ([10]; first compound 0.0002 µM): 1.23
relative viability ([10]; first compound 0.000632 µM): 0.822
relative viability ([10]; first compound 0.002 µM): 0.203
relative viability ([10]; first compound 0.006325 µM): 0.236
relative viability ([10]; first compound 0.02 µM): 0.108
relative viability ([11]; first compound 0.0002 µM): 0.771
relative viability ([11]; first compound 0.000632 µM): 0.826
relative viability ([11]; first compound 0.002 µM): 0.654
relative viability ([11]; first compound 0.006325 µM): 0.508
relative viability ([11]; first compound 0.02 µM): 0.372
relative viability ([12]; first compound 0.0002 µM): 0.946
relative viability ([12]; first compound 0.000632 µM): 0.485
relative viability ([12]; first compound 0.002 µM): 0.363
relative viability ([12]; first compound 0.006325 µM): 0.28
relative viability ([12]; first compound 0.02 µM): 0.239
relative viability ([13]; first compound 0.0002 µM): 1.06
relative viability ([13]; first compound 0.000632 µM): 1.15
relative viability ([13]; first compound 0.002 µM): 0.263
relative viability ([13]; first compound 0.006325 µM): 0.221
relative viability ([13]; first compound 0.02 µM): 0.167
relative viability ([14]; first compound 0.0002 µM): 1.06
relative viability ([14]; first compound 0.000632 µM): 1.07
relative viability ([14]; first compound 0.002 µM): 1.07
relative viability ([14]; first compound 0.006325 µM): 0.525
relative viability ([14]; first compound 0.02 µM): 0.497
relative viability ([15]; first compound 0.0002 µM): 0.421
relative viability ([15]; first compound 0.000632 µM): 0.38
relative viability ([15]; first compound 0.002 µM): 0.379
relative viability ([15]; first compound 0.006325 µM): 0.343
relative viability ([15]; first compound 0.02 µM): 0.32
relative viability ([16]; first compound 0.0002 µM): 0.273
relative viability ([16]; first compound 0.000632 µM): 0.201
relative viability ([16]; first compound 0.002 µM): 0.105
relative viability ([16]; first compound 0.006325 µM): 0.193
relative viability ([16]; first compound 0.02 µM): 0.076
relative viability ([17]; first compound 0.0002 µM): 1.03
relative viability ([17]; first compound 0.000632 µM): 0.885
relative viability ([17]; first compound 0.002 µM): 0.467
relative viability ([17]; first compound 0.006325 µM): 0.334
relative viability ([17]; first compound 0.02 µM): 0.369
relative viability ([18]; first compound 0.0002 µM): 0.528
relative viability ([18]; first compound 0.000632 µM): 0.623
relative viability ([18]; first compound 0.002 µM): 0.481
relative viability ([18]; first compound 0.006325 µM): 0.388
relative viability ([18]; first compound 0.02 µM): 0.246
relative viability ([19]; first compound 0.0002 µM): 0.241
relative viability ([19]; first compound 0.000632 µM): 0.246
relative viability ([19]; first compound 0.002 µM): 0.136
relative viability ([19]; first compound 0.006325 µM): 0.148
relative viability ([19]; first compound 0.02 µM): 0.103
relative viability ([20]; first compound 0.0002 µM): 0.939
relative viability ([20]; first compound 0.000632 µM): 0.818
relative viability ([20]; first compound 0.002 µM): 0.843
relative viability ([20]; first compound 0.006325 µM): 0.171
relative viability ([20]; first compound 0.02 µM): 0.121
relative viability ([21]; first compound 0.0002 µM): 1.07
relative viability ([21]; first compound 0.000632 µM): 0.934
relative viability ([21]; first compound 0.002 µM): 1
relative viability ([21]; first compound 0.006325 µM): 0.581
relative viability ([21]; first compound 0.02 µM): 0.397

Reference: the supplement of paper PMC10307832
